{"source": "patent US11292807B2", "about": "(OCEANS LTD., priority 2015, dated 2022)", "key": {"[1]": {"tested_on": "CCD1079SK (fibroblast, noncancerous but proliferating)", "test": "CIMA assay, cell viability, CCD1079SK", "conditions": "CCD"}, "MDA-MB [2]": {"tested_on": "MDA-MB", "test": "cells", "conditions": "Homo sapiens, read-out: Average cell viability, MDA-MB"}, "A549 (lung carcinoma)": {"tested_on": "A549 (lung carcinoma)", "test": "CIMA assay (colorimetric indicator of metabolic activity), cell viability, A549", "conditions": "for Fold change in viability AVG: A549"}, "PC3": {"tested_on": "PC3", "test": "CIMA assay, cell viability, PC3", "conditions": "for Fold change in viability AVG: PC3"}, "[3]": {"tested_on": "U373 (glioblastoma-astrocytoma)", "test": "CIMA assay, cell viability, U373", "conditions": "for Fold change in viability AVG: U373", "description": "(§1) Stock solutions of the extracts were prepared in dimethylsulfoxide (DMSO) at 10 mg/mL and stored in 200 μl aliquots at −20° C. until analysis. This preparation ensured that the DMSO delivered to cells in culture never exceeded 1%.\n(§2) Prepared extracts were assessed following chronic exposure conditions in which cells were seeded at 2×10^3 cells/well (96 well-plate) and incubated with test compounds for 72 h. Each compound was evaluated over a range of concentrations (0, 10, 25, 50 or 100 μg/ml). Cell proliferation was initially assessed using a standard colorimetric indicator of metabolic activity (CIMA) assay. In this assay, tetrazole reduction was evaluated as a measure of metabolic function that evaluates mitochondrial activity to determine the extent of cell proliferation within a culture. This assay is based on the reduction of yellow tetrazolium salt to purple formazan by mitochondrial reductases enzyme in viable cells, resulting in a color changed that confers a change in absorbance."}, "[4]": {"tested_on": "THP-1 (acute monocytic leukemia)", "test": "CIMA assay, cell viability, THP-1", "conditions": "for Fold change in viability AVG: THP-1", "description": "as §1, §2"}, "MDA-MB [5]": {"tested_on": "MDA-MB", "conditions": "MDA-MB"}, "in vitro": {"test": "in vitro", "conditions": "human, Average cell viability"}, "[6]": {"tested_on": "SKOV3 (ovarian adenocarcinoma)", "test": "CIMA assay, cell viability, SKOV3", "conditions": "for Fold change in viability AVG: SKOV", "description": "as §1, §2"}}, "note": "Read-outs that look alike come from different tables or passages of the source."}
{"smiles": "CC/C=C\\C/C=C\\C/C=C\\CCCCCCCC(=O)O", "note": "[Compound 19, α-linolenic acid]", "values": [{"measurement": "Fold change in viability AVG", "setting": "[1]; 1 ug/mL", "result": 1.20}, {"measurement": "Fold change in viability AVG", "setting": "[1]; 10 ug/mL", "result": 1.16}, {"measurement": "Fold change in viability AVG", "setting": "[1]; 50 ug/mL", "result": 0.85}, {"measurement": "Fold change in viability AVG", "setting": "[1]; 100 ug/mL", "result": 0.23}, {"measurement": "viability at 1 µg/mL", "setting": "MDA-MB [2]; 1 ug/mL", "result": 108, "unit": "%"}, {"measurement": "viability at 10 µg/mL", "setting": "MDA-MB [2]; 10 ug/mL", "result": 108, "unit": "%"}, {"measurement": "viability at 50 µg/mL", "setting": "MDA-MB [2]; 50 ug/mL", "result": 81, "unit": "%"}, {"measurement": "viability at 100 µg/mL", "setting": "MDA-MB [2]; 100 ug/mL", "result": 24, "unit": "%"}, {"measurement": "A549 AVG", "setting": "A549 (lung carcinoma); A549, sample at 1 ug/mL", "result": 1.16}, {"measurement": "A549 AVG", "setting": "A549 (lung carcinoma); A549, sample at 10 ug/mL", "result": 1.16}, {"measurement": "A549 AVG", "setting": "A549 (lung carcinoma); A549, sample at 50 ug/mL", "result": 1.02}, {"measurement": "A549 AVG", "setting": "A549 (lung carcinoma); A549, sample at 100 ug/mL", "result": 0.67}, {"measurement": "Fold change in viability AVG", "setting": "A549 (lung carcinoma); 1 ug/mL", "result": 1.16}, {"measurement": "Fold change in viability AVG", "setting": "A549 (lung carcinoma); 10 ug/mL", "result": 1.16}, {"measurement": "Fold change in viability AVG", "setting": "A549 (lung carcinoma); 50 ug/mL", "result": 1.02}, {"measurement": "Fold change in viability AVG", "setting": "A549 (lung carcinoma); 100 ug/mL", "result": 0.67}, {"measurement": "viability at 1 µg/mL", "setting": "A549 (lung carcinoma); Homo sapiens, A549, read-out: Average cell viability, A549, 1 ug/mL", "result": 99, "unit": "%"}, {"measurement": "viability at 10 µg/mL", "setting": "A549 (lung carcinoma); Homo sapiens, A549, read-out: Average cell viability, A549, 10 ug/mL", "result": 100, "unit": "%"}, {"measurement": "viability at 50 µg/mL", "setting": "A549 (lung carcinoma); Homo sapiens, A549, read-out: Average cell viability, A549, 50 ug/mL", "result": 88, "unit": "%"}, {"measurement": "viability at 100 µg/mL", "setting": "A549 (lung carcinoma); Homo sapiens, A549, read-out: Average cell viability, A549, 100 ug/mL", "result": 57, "unit": "%"}, {"measurement": "viability at 1 µg/mL", "setting": "PC3; Homo sapiens, PC-3, read-out: Average cell viability, PC3, 1 ug/mL", "result": 105, "unit": "%"}, {"measurement": "viability at 10 µg/mL", "setting": "PC3; Homo sapiens, PC-3, read-out: Average cell viability, PC3, 10 ug/mL", "result": 103, "unit": "%"}, {"measurement": "viability at 50 µg/mL", "setting": "PC3; Homo sapiens, PC-3, read-out: Average cell viability, PC3, 50 ug/mL", "result": 88, "unit": "%"}, {"measurement": "viability at 100 µg/mL", "setting": "PC3; Homo sapiens, PC-3, read-out: Average cell viability, PC3, 100 ug/mL", "result": 11, "unit": "%"}, {"measurement": "PC3 AVG", "setting": "PC3; PC3, sample at 1 ug/mL", "result": 1.09}, {"measurement": "PC3 AVG", "setting": "PC3; PC3, sample at 10 ug/mL", "result": 1.07}, {"measurement": "PC3 AVG", "setting": "PC3; PC3, sample at 50 ug/mL", "result": 0.91}, {"measurement": "PC3 AVG", "setting": "PC3; PC3, sample at 100 ug/mL", "result": 0.12}, {"measurement": "Fold change in viability AVG", "setting": "PC3; 1 ug/mL", "result": 1.09}, {"measurement": "Fold change in viability AVG", "setting": "PC3; 10 ug/mL", "result": 1.07}, {"measurement": "Fold change in viability AVG", "setting": "PC3; 50 ug/mL", "result": 0.91}, {"measurement": "Fold change in viability AVG", "setting": "PC3; 100 ug/mL", "result": 0.12}, {"measurement": "viability at 1 µg/mL", "setting": "[3]; Homo sapiens, U373 MG, read-out: Average cell viability, U373, 1 ug/mL", "result": 116, "unit": "%"}, {"measurement": "viability at 10 µg/mL", "setting": "[3]; Homo sapiens, U373 MG, read-out: Average cell viability, U373, 10 ug/mL", "result": 108, "unit": "%"}, {"measurement": "viability at 50 µg/mL", "setting": "[3]; Homo sapiens, U373 MG, read-out: Average cell viability, U373, 50 ug/mL", "result": 57, "unit": "%"}, {"measurement": "viability at 100 µg/mL", "setting": "[3]; Homo sapiens, U373 MG, read-out: Average cell viability, U373, 100 ug/mL", "result": 10, "unit": "%"}, {"measurement": "U373 AVG", "setting": "[3]; U373, sample at 1 ug/mL", "result": 1.18}, {"measurement": "U373 AVG", "setting": "[3]; U373, sample at 10 ug/mL", "result": 1.10}, {"measurement": "U373 AVG", "setting": "[3]; U373, sample at 50 ug/mL", "result": 0.58}, {"measurement": "U373 AVG", "setting": "[3]; U373, sample at 100 ug/mL", "result": 0.10}, {"measurement": "Fold change in viability AVG", "setting": "[3]; 1 ug/mL", "result": 1.18}, {"measurement": "Fold change in viability AVG", "setting": "[3]; 10 ug/mL", "result": 1.10}, {"measurement": "Fold change in viability AVG", "setting": "[3]; 50 ug/mL", "result": 0.58}, {"measurement": "Fold change in viability AVG", "setting": "[3]; 100 ug/mL", "result": 0.10}, {"measurement": "viability at 1 µg/mL", "setting": "[4]; Homo sapiens, THP-1, read-out: Average cell viability, THP-1, 1 ug/mL", "result": 102, "unit": "%"}, {"measurement": "viability at 10 µg/mL", "setting": "[4]; Homo sapiens, THP-1, read-out: Average cell viability, THP-1, 10 ug/mL", "result": 99, "unit": "%"}, {"measurement": "viability at 50 µg/mL", "setting": "[4]; Homo sapiens, THP-1, read-out: Average cell viability, THP-1, 50 ug/mL", "result": 72, "unit": "%"}, {"measurement": "viability at 100 µg/mL", "setting": "[4]; Homo sapiens, THP-1, read-out: Average cell viability, THP-1, 100 ug/mL", "result": 31, "unit": "%"}, {"measurement": "THP-1 AVG", "setting": "[4]; THP-1, sample at 1 ug/mL", "result": 1.16}, {"measurement": "THP-1 AVG", "setting": "[4]; THP-1, sample at 10 ug/mL", "result": 1.12}, {"measurement": "THP-1 AVG", "setting": "[4]; THP-1, sample at 50 ug/mL", "result": 0.82}, {"measurement": "THP-1 AVG", "setting": "[4]; THP-1, sample at 100 ug/mL", "result": 0.35}, {"measurement": "Fold change in viability AVG", "setting": "[4]; 1 ug/mL", "result": 1.16}, {"measurement": "Fold change in viability AVG", "setting": "[4]; 10 ug/mL", "result": 1.12}, {"measurement": "Fold change in viability AVG", "setting": "[4]; 50 ug/mL", "result": 0.82}, {"measurement": "Fold change in viability AVG", "setting": "[4]; 100 ug/mL", "result": 0.35}, {"measurement": "MDA-MB AVG", "setting": "MDA-MB [5]; sample at 1 ug/mL", "result": 1.17}, {"measurement": "MDA-MB AVG", "setting": "MDA-MB [5]; sample at 10 ug/mL", "result": 1.18}, {"measurement": "MDA-MB AVG", "setting": "MDA-MB [5]; sample at 50 ug/mL", "result": 0.88}, {"measurement": "MDA-MB AVG", "setting": "MDA-MB [5]; sample at 100 ug/mL", "result": 0.26}, {"measurement": "Fold change in viability AVG", "setting": "MDA-MB [5]; 1 ug/mL", "result": 1.17}, {"measurement": "Fold change in viability AVG", "setting": "MDA-MB [5]; 10 ug/mL", "result": 1.18}, {"measurement": "Fold change in viability AVG", "setting": "MDA-MB [5]; 50 ug/mL", "result": 0.88}, {"measurement": "Fold change in viability AVG", "setting": "MDA-MB [5]; 100 ug/mL", "result": 0.26}, {"measurement": "viability at 72 h, 1 ug/mL", "setting": "in vitro", "result": 109, "unit": "%"}, {"measurement": "viability at 72 h, 10 ug/mL", "setting": "in vitro", "result": 105, "unit": "%"}, {"measurement": "viability at 72 h, 50 ug/mL", "setting": "in vitro", "result": 77, "unit": "%"}, {"measurement": "viability at 72 h, 100 ug/mL", "setting": "in vitro", "result": 21, "unit": "%"}, {"measurement": "viability at 1 µg/mL", "setting": "[6]; Homo sapiens, SK-OV-3, read-out: Average cell viability, SKOV, 1 ug/mL", "result": 117, "unit": "%"}, {"measurement": "viability at 10 µg/mL", "setting": "[6]; Homo sapiens, SK-OV-3, read-out: Average cell viability, SKOV, 10 ug/mL", "result": 111, "unit": "%"}, {"measurement": "viability at 50 µg/mL", "setting": "[6]; Homo sapiens, SK-OV-3, read-out: Average cell viability, SKOV, 50 ug/mL", "result": 101, "unit": "%"}, {"measurement": "viability at 100 µg/mL", "setting": "[6]; Homo sapiens, SK-OV-3, read-out: Average cell viability, SKOV, 100 ug/mL", "result": 83, "unit": "%"}, {"measurement": "Fold change in viability AVG", "setting": "[6]; 1 ug/mL", "result": 1.26}, {"measurement": "Fold change in viability AVG", "setting": "[6]; 10 ug/mL", "result": 1.20}, {"measurement": "Fold change in viability AVG", "setting": "[6]; 50 ug/mL", "result": 1.09}, {"measurement": "Fold change in viability AVG", "setting": "[6]; 100 ug/mL", "result": 0.90}]}
